Results on 89 molecules are retold here after PubChem BioAssay AID1508591.

The structures appear in SMILES notation.

The conditions of the series: rat; liver microsomes; pH 7.4; 15.0 min; 1.0 µM.
A word on the half-life: it is how long it takes for the measured level to halve. Higher therefore signals slow decline. For `COc1cc([C@@H]2c3cc4c(cc3[C@H](O)[C@H]3COC(=O)[C@H]23)OCO4)cc(OC)c1OC`, the half-life is > 30 min. In the case of `Cc1cc(C)nc(NC(=S)N2CCN(c3ccc(C(F)(F)F)cc3[N+](=O)[O-])CC2)c1`, the half-life was > 30 min. `Fc1ccc(Nc2nc(-c3ccncc3)ncc2-c2ccccc2)cc1F` registered a half-life of 27 min.

On to `O=C(Nc1nc(-c2ccccc2)cs1)c1ccncc1NS(=O)(=O)c1ccc(F)cc1`, for which the half-life came to 20 min. Take `Cc1ccc(-c2csc(NC(=O)c3ccncc3NS(=O)(=O)c3ccc(C)cc3)n2)cc1`: the half-life amounted to 7.3 min. The same measure for `CN(C)CCNC(=O)c1nc(-c2ccccc2)cc2[nH]ccc12`: 1.92 min; for `Cc1cc(-c2nc(Nc3ccc(F)c(F)c3)c3ccccc3n2)cc(C)n1`: > 30 min; for `COc1ccc(-c2ccc3nc(-c4cc(C)cc(C)c4)oc3c2)c(OC)c1OC`: > 30 min.

With `Fc1ccc(CNc2ncnc3onc(-c4ccc(F)cc4)c23)cc1`, the half-life was 28 min. In the case of `Cc1cn(-c2cc(NC(=O)c3ccc(C)c(Nc4nccc(-c5cccnc5)n4)c3)cc(C(F)(F)F)c2)cn1`, the half-life was > 30 min.

The molecule `CN(C(=O)OC(C)(C)C)[C@@H](Cc1ccc(O[S+](=O)([O-])c2cccc3cnccc23)cc1)C(=O)N1CCN(C(=O)OCc2ccccc2)CC1` returned a half-life of 1.74 min. Regarding `CC(=O)c1c(C)[nH]c(C(=O)Nc2cccc(S(=O)(=O)N3CCCCCC3)c2)c1C`, the half-life was 1.6 min. Regarding `COc1ccc(C(=O)NC2CCN(c3cnn(CC4CC4)c(=O)c3)CC2)c(OC)n1`, the half-life worked out at 13.9 min. In turn, `CCCCCN(CCC12CC3CC(CC(C3)C1)C2)C(=O)NCCCc1ccncc1` had a half-life of 3.7 min. As for `Cc1ccc(C(=O)N2CCc3c(nc4cc(-c5ccccc5)[nH]n4c3=O)C2)cn1`, the half-life is > 30 min. With `O=C(O)CCC(=O)Nc1nc(-c2ccccc2)cs1`, the half-life is > 30 min. As for `Nc1c(C(=O)Nc2ccc(Cl)c(C(F)(F)F)c2)sc2nc3c(cc12)N1CCC3CC1`, the half-life turned out to be 22.1 min. In the case of `COC(=O)c1ccc([C@H]2c3[nH]c4ccccc4c3C[C@H](C(=O)OC)N2C(=O)CCl)cc1`, the half-life came out at 4.02 min. For `Cc1ccc(NS(=O)(=O)c2c(C)[nH]c(C)c2C(=O)N2CCCC2)cc1Cl`, the half-life came out at 1.03 min. On to `CN([C@@H](Cc1ccc(OS(=O)(=O)c2cccc3cnccc23)cc1)C(=O)N1CCN(c2ccccc2)CC1)S(=O)(=O)c1cccc2cnccc12`, for which the half-life came to 1 min. Consider `O=S(=O)(Nc1nccs1)c1ccc(NCc2cc(F)ccc2O)cc1`, for which the half-life turned out to be 12 min. The molecule `COc1cccc(OC)c1C(=O)Nc1ccccc1C(=O)Nc1cccc(C(F)(F)F)c1` came in with a half-life of 3.11 min. The molecule `Cc1n[nH]c(C)c1CCc1nc2c3ccccc3nc(SCC(=O)Nc3ccc(F)cc3)n2n1` gave a half-life of 2.67 min. To `CCOC(=O)N1CCN(Cc2nc3c(c(=O)n(C)c(=O)n3C)n2Cc2ccc(F)cc2)CC1` belongs 8.7 min. With `CC(C)n1cc(-c2ccc(Oc3ccccc3)cc2)c2c(N)ncnc21`, the half-life is 18 min. As for `O=C(Nc1cccc(C(F)(F)F)c1)C1=CCN(Cc2ccc(F)cc2)CC1`, the half-life worked out at 3.4 min. For the molecule `CN(C)CCOc1ccc(C(=C(CCCl)c2ccccc2)c2ccccc2)cc1`, the half-life was > 30 min.

For `c1ccc(-c2nc(N3CCCCCC3)c3ccccc3n2)nc1`, the half-life came out at 2.18 min. As for `COc1ccccc1C(=O)Nc1ccccc1C(=O)Nc1cccc(C(F)(F)F)c1`, the half-life is > 30 min. Take `O=C(NCc1ccncc1)c1nc(-c2cccnc2)c2cnccn12`: the half-life was > 30 min. Consider `Cc1ccnc(NC(=S)N2CCN(c3ccc(Cl)c(Cl)c3)CC2)c1`, for which the half-life came to 24 min.

In the case of `Cc1noc(C)c1-c1cc(-c2ccc3c(c2)C(=O)NC3)cn2cncc12`, the half-life is > 30 min. Take `O=C(NCCCn1ccnc1)c1ccc(-c2ncc3cnc(-c4cccc(F)c4)cn23)cc1`: the half-life is 22.5 min. `O=C1C2=C(Nc3ccccc3SC2c2ccco2)c2ccccc21` (centres undefined) gave a half-life of 4.01 min. In turn, `Cc1cc(NC(=S)N2CCN(c3cccc(C(F)(F)F)c3)CC2)nc2ccccc12` gave a half-life of 26 min. `O=S(=O)(Nc1nccs1)c1ccc(NCc2cc(Cl)ccc2O)cc1` returned a half-life of 11 min. The same measure for `CC(=O)c1cccc(-c2csc3ncnc(Sc4nnnn4C)c23)c1`: 3.08 min; for `CCOc1ccc(/C=C/c2nc3ccccc3n2S(=O)(=O)c2ccc(Br)cc2)cc1`: > 30 min. `NC(=O)C1CCN(c2nnc(-c3ccc(Br)cc3)s2)CC1`: the half-life was found to be 7.89 min. To `NC(=O)C1CCN(c2nc(-c3cccc(N)c3)cs2)CC1` belongs > 30 min. The same measure for `N#Cc1cccc(NC(=O)c2sc3nc4c(cc3c2N)N2CCC4CC2)c1`: 25.6 min; for `CC(C)Oc1ccc(-c2ccc(=O)n(CC(=O)NCCc3ccccc3)n2)cc1`: 1.6 min; for `CN(C)c1cccc(-c2c3c(=O)n(-c4ccccc4Cl)[nH]c3cc(=O)n2C)c1`: > 30 min. The same measure for `O=C(c1nc(-c2cccnc2)c2ccccn12)N1CCN(c2ncccn2)CC1`: 8.43 min; for `O=C1c2ccccc2-n2c1nc1ccccc1c2=O`: 21.3 min; for `O=C(Nc1ccc(Cl)c(S(=O)(=O)N2CCOCC2)c1)c1ccc(S(=O)(=O)N2CCCCC2)cc1`: 3 min.

Molecule `CCN1CCN(c2ncc3c(n2)CCN(Cc2cc(Br)cs2)C3)CC1` gave a half-life of 2.7 min. `CCOc1ccccc1C(=O)Nc1ccccc1C(=O)Nc1cccc(S(=O)(=O)C(F)(F)F)c1`: the half-life was > 30 min. Turning to `COc1cccc(CNc2ccc(S(=O)(=O)Nc3nc4ccccc4o3)cc2)c1O`, the half-life is > 30 min. Turning to `Cc1ccc([S+](=O)([O-])n2cc(Cc3ccc(-c4ccccc4)cc3)c3ccccc32)cc1`, the half-life came out at 22 min. With `COc1cc(=O)n2c(c1C(=O)N(C)Cc1cscn1)CCN(C(=O)c1ccc(C)cc1C)CC2`, the half-life is > 30 min. Regarding `O=[S+]([O-])(Nc1ccc(N2CCNCC2)cc1)c1ccc(NCc2ccc(Cl)cc2O)cc1`, the half-life is > 30 min.

`N#Cc1c(NC(=O)c2cccc3ccccc23)sc2c1CCCC2` came in with a half-life of 7.59 min. The same measure for `Cn1c2ccccc2c2c3c(c4c5ccccc5n(CCC#N)c4c21)CNC3=O`: 4.29 min. `Cc1ccc(S(=O)(=O)Nc2ccc(C(=O)Nc3nc(-c4ccc(Cl)cc4)cs3)cc2)cc1` came in with a half-life of 16 min. To `Cc1sc(NC(=O)Cc2ccc3c(c2)OCO3)nc1-c1ccc2c(c1)CCN2C(=O)c1ccccc1F` belongs 20 min; to `CC(=O)NCc1ccc(-c2csc(Nc3cccc(C)c3)n2)o1`, > 30 min; to `COCCNc1ncc(-c2cccc(O)c2)c2c1OCC2`, 8.62 min. With `O=[S+]([O-])(Nc1ccc(C2CCNCC2)cc1)c1ccc(NCc2ccc(Br)cc2O)cc1`, the half-life is > 30 min. For `Fc1cc(Nc2nc(-c3ccncc3)nc3ccccc23)ccc1-c1cn[nH]c1`, the half-life worked out at 19 min. Molecule `COc1cc2c(cc1Oc1cccc(N(C)C)c1)NC(=O)C21CCN(c2cnccn2)CC1` returned a half-life of 1.77 min.

`CCc1ccc(C2N=C(N)Nc3nc4ccccc4n32)cc1` (centres undefined) showed a half-life of 5.62 min. The same measure for `CCCNC(=O)c1ccc2c(c1)N=C(C)c1c(C)ccc(C)c1S2`: 1.34 min; for `Cc1ccccc1C(=O)N1CCc2cc(-c3cccc(NC(=O)Cc4ccc5c(c4)OCO5)c3)ccc21`: 9.7 min; for `COc1ccccc1NC(=O)C1=C(C)Nc2c(C(=O)Nc3ccc(F)cc3)cnn2C1c1ccc(Cl)cc1` (centres undefined): 3.34 min.

Consider `O=C1/C(=C\c2ccccc2)C[C@@]2(O)C3Cc4ccc(O)c5c4[C@@]2(CCN3CC2CC2)[C@H]1O5`, for which the half-life came out at 3.37 min. Consider `Cc1ccccc1-c1nc(NCc2cccs2)c2ccccc2n1`, for which the half-life was 2.74 min. For `Cc1ccccc1C(=O)N1CCc2cc(-c3nc(NC(=O)c4ccc5c(c4)OCO5)sc3C)ccc21`, the half-life is > 30 min. `Cc1ccc2c(c1)N(S(=O)(=O)c1cc(-c3onc(C)c3C)ccc1C)CCO2` had a half-life of 1.56 min. In the case of `CC[C@@H]1C(=O)N(C)c2cnc(Nc3ccc(C(=O)NC4CCN(C)CC4)cc3OC)nc2N1C1CCCC1`, the half-life is > 30 min.

`COc1ccc(C2(C(=O)N3CCC(n4cc(-c5nc(C)no5)nn4)CC3)CC2)cc1` yielded a half-life of 7.38 min. With `COc1ccc(Nc2nc(-c3cccc(OC)c3)no2)cc1`, the half-life turned out to be 20.3 min. In turn, `CCOC(=O)c1[nH]c(C)c(CCC(=O)N2CCN(c3cccc(C)c3C)CC2)c1C` registered a half-life of 2.27 min.

`Cc1ccccc1C(=O)Nc1sc2c(c1C(=O)NCc1ccco1)CCC(C(C)(C)C)C2` (centres undefined) showed a half-life of 23.9 min. On to `COc1c(C)c2c(c(O)c1C/C=C(\C)CCC(=O)OCCN1CCOCC1)C(=O)OC2`, for which the half-life was determined as 1 min.

Consider `O=c1c(-c2ccc(O)cc2)coc2cc(O)cc(O)c12`, for which the half-life was > 30 min. `O=C1CCCC2=C1C(c1[nH]ncc1Br)N=C(Nc1nc3ccccc3o1)N2` (centres undefined) had a half-life of 14 min. Take `CCN1C(=O)c2ccccc2S(=O)c2ccc(C(=O)NCc3ccccc3)cc21` (centres undefined): the half-life amounted to 8.12 min. `CCCCn1cnc2cc(NCc3ccc(OCC)cc3)ccc21`: the half-life turned out to be 10.3 min. `COc1ccc(-n2c(C)c(C(C)=O)c3cc(OC(=O)COc4ccccc4)ccc32)cc1` yielded a half-life of 10.4 min.

For the molecule `Fc1ccc(-c2ccc(Nc3nc(-c4ccncc4)nc4ccccc34)cc2F)c(Cl)c1`, the half-life was determined as 25 min. Take `COc1ccc(-n2nc(C3CCCN(C(=O)c4ccc(C)cc4)C3)[nH]c2=O)cc1` (centres undefined): the half-life is 23.9 min. Regarding `CCCc1ccc(-c2csc(NC(=O)c3ccncc3NS(=O)(=O)c3ccc(C)cc3)n2)cc1`, the half-life is 3.3 min.

`COc1ccc(Cl)cc1NC(=O)c1sc2nc3c(cc2c1N)N1CCC3CC1` yielded a half-life of 26.4 min. `CCCCCn1cc2c(c1-c1ccc(Br)cc1)c(=O)n(C)c(=O)n2C` registered a half-life of 6.39 min. In turn, `Cc1cc(-c2nnc3n2CCCCC3)c(C)n1-c1cccnc1` displayed a half-life of 15 min.

As to `Nc1nc2c(s1)C(c1ccc(F)cc1F)CC(=O)N2` (centres undefined), the half-life is > 30 min. Regarding `Cc1ccc(NS(=O)(=O)c2ccccc2C(=O)Nc2nc(-c3ccccc3)cs2)cc1`, the half-life amounted to 15 min. As to `Nc1ncccc1-c1nc2ccc(-c3ccccc3)nc2n1-c1ccc(C2(N)CCC2)cc1`, the half-life was > 30 min.
